This is an account of results in the supplement of paper PMC6580486.

One test relates to s1-12 (canine undifferentiated pleomorphic sarcoma culture). The method, then:
(§1)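 60-agent targeted drug screens (Drug Screen V3 on epithelioid sarcoma cultures PCB490-3/4/5, PCB495, EPS cell lines ESX, VA-ES-BJ, FU-EPS-1 and SkMc myoblasts; PPTI screen v2.1 on human UPS PCB197 and canine UPS S1-12). 384-well plates, 72 h, CellTiter-Glo viability; IC50 by Hill curve fit. 10000 nM = no IC50 achieved (top reported value).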

A further test has as its system pcb-00197 (human undifferentiated pleomorphic sarcoma culture). As to the method:
as §1

Another test deals with PCB490-5 (human epithelioid sarcoma primary culture). As to the method: (§2)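 Roche open-access kinase inhibitor screen (223 compounds) on human epithelioid sarcoma primary cultures from three spatially distinct regions of tumor PCB490. 384-well plates, 72 h, CellTiter-Glo viability; IC50 by Hill curve fit. 100000 nM = no IC50 reached. Compound ids carry a plate-well prefix, which is stripped.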
Another test has as its system PCB490-4 (human epithelioid sarcoma primary culture). As to the method: as §2
In a further test the test system is PCB490-3 (human epithelioid sarcoma primary culture). As to the method: as §2

Turning to `CNC(=O)c1cc(Oc2ccc(NC(=O)Nc3ccc(Cl)c(C(F)(F)F)c3)cc2)ccn1` [sorafenib], the results for the IC50 cell viability with s1-12 and in the test on pcb-00197 were 6.43 µM and over 10 µM, respectively.

On to `Oc1c2ccccc2c2c3c(cccc13)N=N2`, for which the IC50 cell viability with s1-12 was 1.36 µM; in the test with pcb-00197 it was over 10 µM.

As to `COc1cc(Nc2ncc3c(n2)-c2ccc(Cl)cc2C(c2c(F)cccc2OC)=NC3)ccc1C(=O)O` [MLN8237], the IC50 cell viability in the test on s1-12 is 0.98 µM; with pcb-00197, 2.74 µM.

`CCOc1cc2ncc(C#N)c(Nc3ccc(F)c(Cl)c3)c2cc1NC(=O)/C=C/CN(C)C` [pelitinib]: the IC50 cell viability was 0.2 µM with s1-12 and over 10 µM in the test on pcb-00197.

Turning to `CN(C)CC[C@H](CSc1ccccc1)Nc1ccc(S(=O)(=O)NC(=O)c2ccc(N3CCN(Cc4ccccc4-c4ccc(Cl)cc4)CC3)cc2)cc1[N+](=O)[O-]` [ABT 737], the values for the IC50 cell viability with s1-12 and in the test with pcb-00197 were 1.06 µM and over 10 µM, respectively.

Consider `CS(=O)(=O)CCNCc1ccc(-c2ccc3ncnc(Nc4ccc(OCc5cccc(F)c5)c(Cl)c4)c3c2)o1` [lapatinib], for which the IC50 cell viability in the test on s1-12 and with pcb-00197 was over 10 µM throughout.

On to `CC(/C=C/C(=O)NO)=C\[C@@H](C)C(=O)c1ccc(N(C)C)cc1` [trichostatin], for which the IC50 cell viability in the test with s1-12 was 0.87 µM; in the test with pcb-00197, over 10 µM.

Turning to `CN1CC[C@H](c2c(O)cc(O)c3c(=O)cc(-c4ccccc4Cl)oc23)[C@H](O)C1` [Alvocidib], the results for the IC50 cell viability in the test with s1-12 and in the test on pcb-00197 were 0.01 µM and 0.26 µM, respectively.

For the molecule `Cc1nc(Nc2ncc(C(=O)Nc3c(C)cccc3Cl)s2)cc(N2CCN(CCO)CC2)n1` [dasatinib], the IC50 cell viability in the test with s1-12 stood at 0.86 µM; in the test on pcb-00197 it was 0.14 µM.

As for `COc1cc(Nc2ncc(F)c(Nc3ccc4c(n3)N(COP(=O)(O)O)C(=O)C(C)(C)O4)n2)cc(OC)c1OC` [Fostamatinib], the IC50 cell viability is 0.73 µM in the test with s1-12 and 4.33 µM with pcb-00197.

With `COc1cc2c(Oc3ccc4[nH]c(C)cc4c3F)ncnc2cc1OCCCN1CCCC1` [cediranib], the IC50 cell viability in the test on s1-12 and in the test with pcb-00197 was over 10 µM in each case.

On to `CNC(=O)CN1CCC(Oc2cc3c(Nc4cccc(Cl)c4F)ncnc3cc2OC)CC1` [AZD-8931], for which the IC50 cell viability in the test with s1-12 and with pcb-00197 was over 10 µM in each case.

In the case of `Nc1cccc2c1CN(C1CCC(=O)NC1=O)C2=O` (stereo not drawn) [Lenalidomide], the results for the IC50 cell viability in the test on s1-12 and in the test with pcb-00197 were 2.85 µM and over 10 µM, respectively.

On to `N#Cc1ccc(COC[C@H]2O[C@@H](n3c(NCc4ccc(Cl)c(Cl)c4)nc4c(N)ncnc43)[C@H](O)[C@@H]2O)cc1`, for which the IC50 cell viability in the test with s1-12 and in the test on pcb-00197 was over 10 µM in each case.

`CCN(CC)CCCC(C)Nc1c2ccc(Cl)cc2nc2ccc(OC)cc12` (stereo not drawn) [quinacrine]: the IC50 cell viability is 0.99 µM with s1-12 and 1.57 µM in the test on pcb-00197.

Take `CCNC(=O)c1noc(-c2cc(C(C)C)c(O)cc2O)c1-c1ccc(CN2CCOCC2)cc1` [AUY922]: the figures for the IC50 cell viability in the test on s1-12 and with pcb-00197 were 0.03 µM and 0.4 µM, respectively.

As to `CCCC(=O)[O-].[Na+]` [sodium butyrate], the IC50 cell viability with s1-12 is 1.57 µM; in the test with pcb-00197 it was over 10 µM.

As to `CS(=O)(=O)c1ccc(C(=O)Nc2ccc(Cl)c(-c3ccccn3)c2)c(Cl)c1` [vismodegib], the values for the IC50 cell viability in the test on s1-12 and in the test with pcb-00197 were 2.75 µM and over 10 µM, respectively.

Turning to `COc1cc2nccc(Oc3ccc(NC(=O)C4(C(=O)Nc5ccc(F)cc5)CC4)cc3)c2cc1OC` [Cabozantinib], the IC50 cell viability with s1-12 and in the test with pcb-00197 was over 10 µM throughout.

Take `CC(C)C[C@H](NC(=O)[C@H](CCc1ccccc1)NC(=O)CN1CCOCC1)C(=O)N[C@@H](Cc1ccccc1)C(=O)N[C@@H](CC(C)C)C(=O)[C@@]1(C)CO1` [carfilzomib]: the IC50 cell viability with s1-12 was 0.99 µM; in the test with pcb-00197, 0.47 µM.

Consider `CC(C)(C)c1cnc(CSc2cnc(NC(=O)C3CCNCC3)s2)o1` [SNS-032], for which the IC50 cell viability with s1-12 is 0.11 µM; in the test with pcb-00197, 0.78 µM.

With `Cc1[nH]c2ccccc2c1CCNCc1ccc(/C=C/C(=O)NO)cc1` [panobinostat], the IC50 cell viability with s1-12 amounted to 0.1 µM; in the test with pcb-00197, 1.05 µM.

With `Cn1cnc2c(F)c(Nc3ccc(Br)cc3Cl)c(C(=O)NOCCO)cc21` [selumetinib], the IC50 cell viability in the test on s1-12 was 1.55 µM; in the test with pcb-00197, over 10 µM.

As for `Cc1cc(Nc2cc(N3CCN(C)CC3)nc(Sc3ccc(NC(=O)C4CC4)cc3)n2)n[nH]1` [tozasertib], the IC50 cell viability in the test on s1-12 and in the test with pcb-00197 was over 10 µM each time.

In the case of `COc1cc2/c(=N/c3ccc(Br)cc3F)nc[nH]c2cc1OCC1CCN(C)CC1` [Vandetanib], the values for the IC50 cell viability in the test on s1-12 and in the test on pcb-00197 were 1.24 µM and 1.32 µM, respectively.

Regarding `Cc1ccc(C(=O)Nc2ccc(CN3CCN(C)CC3)c(C(F)(F)F)c2)cc1C#Cc1cnc2cccnn12` [ponatinib], the IC50 cell viability in the test on s1-12 worked out at 0.16 µM; with pcb-00197, 4.43 µM.

For `CC/C(=C(\c1ccccc1)c1ccc(OCCN(C)C)cc1)c1ccccc1` [Tamoxifen], the IC50 cell viability in the test on s1-12 and with pcb-00197 was over 10 µM in each case.

Consider `Nc1ncn([C@H]2C[C@H](O)[C@@H](CO)O2)c(=O)n1` [decitabine], for which the IC50 cell viability in the test on s1-12 was 0.33 µM; in the test on pcb-00197, over 10 µM.

For `Cc1ccc(Nc2nccc(N(C)c3ccc4c(C)n(C)nc4c3)n2)cc1S(N)(=O)=O` [pazopanib], the IC50 cell viability with s1-12 and in the test on pcb-00197 was over 10 µM in each case.

For the molecule `COC1=CC(c2cc3ccccc3[nH]2)=N/C1=C\c1[nH]c(C)cc1C` [obatoclax], the IC50 cell viability in the test with s1-12 was determined as 0.04 µM; in the test with pcb-00197 it was 0.21 µM.

Consider `CN1CCN(CCOc2cc(OC3CCOCC3)c3c(Nc4c(Cl)ccc5c4OCO5)ncnc3c2)CC1` [Saracatinib], for which the IC50 cell viability in the test with s1-12 is 1.51 µM; with pcb-00197, over 10 µM.

For the molecule `CCN(CCCOc1ccc2c(Nc3cc(CC(=O)Nc4cccc(F)c4)[nH]n3)ncnc2c1)CCOP(=O)(O)O` [barasertib], the IC50 cell viability in the test with s1-12 and in the test on pcb-00197 was over 10 µM each time.

In the case of `CC1=C(/C=C/C(C)=C/C=C/C(C)=C/C(=O)O)C(C)(C)CCC1` [retinoic acid], the IC50 cell viability with s1-12 was 2.04 µM; in the test on pcb-00197, over 10 µM.

For `C[C@@]1(C(=O)Nc2ccc(F)nc2)CCCN1c1nc(Nc2cc(C3CC3)n[nH]2)c2cccn2n1`, the IC50 cell viability in the test with s1-12 was found to be 0.01 µM; in the test with pcb-00197, 2.35 µM.

For `COc1cccc(C2=C(c3cn(C)c4c(C)cccc34)C(=O)NC2=O)c1`, the IC50 cell viability in the test on PCB490-5, with PCB490-4 and with PCB490-3 was over 100 µM throughout.

`Nc1c(C(=O)c2cccc(OC[C@H](O)CO)c2)cnn1-c1ccc(F)cc1`: the IC50 cell viability with PCB490-5, with PCB490-4 and in the test on PCB490-3 was over 100 µM in each case.

Take `C[C@@H](c1ccccc1)[C@@H](C(=O)Nc1ccc(I)cc1F)N1C(=O)N[C@H](c2ccc(OC[C@H](O)CO)cc2)C1=O`: the IC50 cell viability in the test on PCB490-5, in the test with PCB490-4 and in the test with PCB490-3 was over 100 µM throughout.

As to `Cn1cc(C2=C(c3cccc(OC[C@H](O)CO)c3)C(=O)NC2=O)c2ccccc21`, the IC50 cell viability with PCB490-5, with PCB490-4 and in the test with PCB490-3 was over 100 µM in each case.

As for `O=C1NC(=NCCc2ccccc2F)S/C1=C\c1ccc2ncccc2c1`, the IC50 cell viability in the test with PCB490-5, in the test with PCB490-4 and in the test on PCB490-3 was over 100 µM throughout.

As to `CO/N=C(\c1ccccc1)c1cnn(-c2ccccc2)c1N`, the IC50 cell viability in the test on PCB490-5, in the test with PCB490-4 and in the test on PCB490-3 was over 100 µM each time.

Regarding `Nc1c(C(=O)c2cccc(-c3ccc[n+]([O-])c3)c2)cnn1-c1ccc(F)cc1F`, the IC50 cell viability in the test with PCB490-5, with PCB490-4 and in the test with PCB490-3 was over 100 µM throughout.

Consider `O=C1NC(=O)C(c2c[nH]c3ccccc23)=C1c1ccccc1`, for which the IC50 cell viability in the test on PCB490-5, in the test with PCB490-4 and in the test with PCB490-3 was over 100 µM in each case.

For `CON=C1NC(=O)/C(=C/c2ccc3ncccc3c2)S1`, the IC50 cell viability is over 100 µM in the test with PCB490-5, over 100 µM in the test with PCB490-4 and 6.8 µM in the test on PCB490-3.

As to `Cn1cc(C2=C(Oc3ccccc3)C(=O)NC2=O)c2ccccc21`, the IC50 cell viability in the test with PCB490-5, with PCB490-4 and in the test with PCB490-3 was over 100 µM throughout.

Consider `Fc1ccc(-c2c(-c3ccncc3)n(CCN3CCOCC3)c3cccnc23)cc1`, for which the IC50 cell viability in the test with PCB490-5, in the test on PCB490-4 and with PCB490-3 was over 100 µM throughout.

`Cn1c(=O)c(Oc2ccccc2)cc2cnc(NC3CCOCC3)nc21`: the IC50 cell viability in the test with PCB490-5, in the test on PCB490-4 and with PCB490-3 was over 100 µM throughout.

As for `N#Cc1ccc(C(=O)c2cnn(-c3ccc(F)cc3)c2N)cc1`, the IC50 cell viability in the test on PCB490-5, in the test with PCB490-4 and in the test with PCB490-3 was over 100 µM in each case.

As for `Cn1cc(C2=C(c3cn(C)c4c([N+](=O)[O-])cccc34)C(=O)NC2=O)c2ccccc21`, the IC50 cell viability in the test on PCB490-5, in the test on PCB490-4 and in the test with PCB490-3 was over 100 µM in each case.

With `COc1cccc(C2=C(c3c(C)n(C)c4ccccc34)C(=O)NC2=O)c1`, the IC50 cell viability in the test with PCB490-5, in the test with PCB490-4 and in the test with PCB490-3 was over 100 µM in each case.
